Data set [1] can be described thus: Critical micelle concentration by fluorescence staining with diphenylhexatriene (DPH). It counts as physicochemical. The note with it: aqueous solution. The procedure:
While a method for measuring CMC is not particularly limited, a method widely known in the art may be used, and the measurement may be performed by, for example, a fluorescence staining method using diphenylhexatriene (DPH).
(§1) Specifically, the critical micellar concentration (CMC) was measured using fluorescence staining and diphenylhexatriene (DPH), and the hydrodynamic radii (Rh) of the micelles formed by agents were measured through a dynamic light scattering (DLS) experiment. The measured results are shown in Tables 1 and 2, compared with a conventional amphiphilic molecule (detergent), DDM.

Data set [2] has as its target T1, melibiose permease (MelB) (Salmonella typhimurium, UniProt P30878).
T1 construct: made in house; host or cells: Salmonella typhimurium DW2 cells (ΔmelB and ΔlacZY) (so in the source); membrane preparation
In words: MelB extraction from membranes and thermostability, SDS-PAGE and western blotting. The settings on record: for MelBSt stabilization ability compared with DDM: 1.5 wt % detergent, 0, 45, 55 and 65° C. The procedure:
An experiment for measuring the structural stability of the Salmonella typhimurium melibiose permease (MelB) protein due to XMAs was performed. The MelB protein was extracted on a membrane using XMAs and DDM, and the amount and structure of the extracted protein were analyzed by SDS-PAGE and western blotting. A concentration of the used compound was 1.5 wt %, and the protein was extracted at a different temperature (0, 45, 55, or 65° C.) to evaluate two kinds of performance such as protein extraction efficiency and stabilization ability of the compound at the same time. Membrane samples that were not treated with XMAs or DDM were used as controls.
Specifically, MelBSt stability due to DDM and XMAs was evaluated according to the method described in the paper (P. S. Chae, et al., Nat. Methods 2010, 7, 1003-1008) written by the inventor in 2010. The protein (MelBSt) was produced using plasmid pK95ΔAHB/WT MelBSt/CH10 encoding wild-type MelB with a 10-His tag at the C-terminus and Salmonella typhimurium DW2 cells (ΔmelB and ΔlacZY). Cell growth and membrane preparation were carried out according to the method described in the paper (Nat. Commun. 2014, 5, 3009) written by A. S. Ethayathulla et al. A protein assay was performed using a Micro BCA kit (Thermo Scientific, Rockford, Ill.). To measure solubilization/stability, MelBSt-containing membrane samples (final protein concentration of 10 mg/mL) were incubated with a solubilization buffer (20 mM sodium phosphate, pH 7.5, 200 mM NaCl, 10% glycerol, 20 mM melibiose) and 1.5% (w/v) DDM, P-XMAs (P-XMA-C8, P-XMA-C9, P-XMA-C10, P-XMA-C11 and P-XMA-C12), M-XMAs (M-XMA-C11, M-XMA-C12, M-XMA-C14, M-XMA-C16 and M-XMA-C18) or O-XMAs (O-XMA-C11, O-XMA-C12, O-XMA-C14, O-XMA-C16 and O-XMA-C18) at four different temperatures (0, 45, 55 and 65° C.) for 90 minutes. Following ultracentrifugation at 355,590 g in a Beckman Optima™ MAX ultracentrifuge using a TLA-100 rotor for 45 minutes at 4° C., 20 μg proteins were separated by SDS-16% PAGE, and then immunoblotted with a Penta-His-HRP antibody (Qiagen, Germantown, Md.). MelBSt was detected using a SuperSignal West Pico chemiluminescent substrate by an ImageQuant LAS 4000 Biomolecular Imager (GE Health Care Life Sciences).
(In general: In western blotting, separated proteins are transferred to a membrane and probed.)

The nature of data set [3]: Hydrodynamic radius and size distribution of micelles by dynamic light scattering (DLS). The settings on record: for Rh (nm), hydrodynamic radius of micelles: 1.0 wt % stated for M-/O-XMAs (FIG. 37); for size distribution of micelles (number of micelle sets): FIGS. 36 and 37. It counts as physicochemical. The procedure:
A method for measuring the radius of a micelle is not particularly limited, but a method well known in the art may be used, and for example, the measurement may be performed using a dynamic light scattering (DLS) experiment.
as §1

The mark [4] stands for this setting: 1.5 wt % detergent, 45° C., 90 minutes.
[5] abbreviates: 1.5 wt % detergent, 55° C., 90 minutes.
The mark [6] stands for this setting: 1.5 wt % detergent, 0° C., 90 minutes.

Values joined by “and” are separate entries in the source; they are usually repeats but may differ in a detail not shown here. Identical values can stand only once.

T1 sequence (P30878 whole entry): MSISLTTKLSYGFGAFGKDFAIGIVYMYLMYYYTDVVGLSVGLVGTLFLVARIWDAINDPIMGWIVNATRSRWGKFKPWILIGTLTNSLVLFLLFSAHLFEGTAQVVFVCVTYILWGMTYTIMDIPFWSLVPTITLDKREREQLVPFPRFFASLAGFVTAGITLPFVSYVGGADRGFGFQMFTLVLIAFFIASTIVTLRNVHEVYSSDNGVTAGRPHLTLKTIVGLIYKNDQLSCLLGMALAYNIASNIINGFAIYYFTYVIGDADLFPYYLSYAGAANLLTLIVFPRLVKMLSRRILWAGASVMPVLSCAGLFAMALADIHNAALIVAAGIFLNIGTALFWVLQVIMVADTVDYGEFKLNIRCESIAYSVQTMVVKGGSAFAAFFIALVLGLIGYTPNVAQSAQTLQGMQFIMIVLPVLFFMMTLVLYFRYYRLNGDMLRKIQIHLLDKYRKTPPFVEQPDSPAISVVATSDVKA

On to `CCCCCCCCCC(CO[C@@H]1OC(CO)[C@@H](O[C@H]2OC(CO)[C@@H](O)C(O)C2O)C(O)C1O)(CO[C@@H]1OC(CO)[C@@H](O[C@H]2OC(CO)[C@@H](O)C(O)C2O)C(O)C1O)Cc1ccc(CC(CCCCCCCCC)(CO[C@@H]2OC(CO)[C@@H](O[C@H]3OC(CO)[C@@H](O)C(O)C3O)C(O)C2O)CO[C@@H]2OC(CO)[C@@H](O[C@H]3OC(CO)[C@@H](O)C(O)C3O)C(O)C2O)cc1` (stereo partly shown) [P-XMA-C9], for which, in data set [1], the “CMC” value is ~10 µM and the “CMC (wt %)” value is ~0.002 wt %. Besides, the “MelBSt stabilization ability compared with DDM” value in data set [2] is “higher MelBSt stabilization ability than DDM”. In addition, the “MelB protein extraction efficiency” value in data set [2] (setting [4]) is “extraction efficiency at the same level as DDM”. Further, in data set [2] (setting [5]), the “MelB protein extraction / maintained solubilization” value is “higher MelBSt extraction ability than DDM”. In data set [3], the “micelle size compared with DDM” value is “smaller than DDM”; the “Rh (nm), hydrodynamic radius of micelles” value is 3.2 ± 0.01 nm; the “size distribution of micelles (number of micelle sets)” value (from here on “size distribution of micelles”) is listed as “one set of micelles”.

With `CCCCCCCCCCCCCCCCCCC(CO[C@@H]1OC(CO)[C@@H](O[C@@H]2OC(CO)[C@@H](O)C(O)C2O)C(O)C1O)(CO[C@@H]1OC(CO)[C@@H](O[C@@H]2OC(CO)[C@@H](O)C(O)C2O)C(O)C1O)Cc1cccc(CC(CCCCCCCCCCCCCCCCCC)(CO[C@@H]2OC(CO)[C@@H](O[C@@H]3OC(CO)[C@@H](O)C(O)C3O)C(O)C2O)CO[C@@H]2OC(CO)[C@@H](O[C@@H]3OC(CO)[C@@H](O)C(O)C3O)C(O)C2O)c1` (stereo partly shown) [M-XMA-C18], in data set [1], the “CMC” value was ~1.5 µM and the “CMC (wt %)” value is given as ~0.0003 wt %. In addition, the “MelB protein extraction efficiency” value in data set [2] (setting [6]) was “protein extraction efficiency at almost the same level as DDM”. In addition, in data set [3], the “Rh (nm), hydrodynamic radius of micelles” value is recorded as 4.1 ± 0.04 nm.

Turning to `CCCCCCCCCCCC(CO[C@@H]1OC(CO)[C@@H](O[C@@H]2OC(CO)[C@@H](O)C(O)C2O)C(O)C1O)(CO[C@@H]1OC(CO)[C@@H](O[C@@H]2OC(CO)[C@@H](O)C(O)C2O)C(O)C1O)Cc1ccccc1C[C@](CCCCCCCCCCC)(CO[C@@H]1OC(CO)[C@@H](O[C@H]2OC(CO)[C@@H](O)C(O)C2O)C(O)C1O)CO[C@@H]1OC(CO)[C@@H](O[C@@H]2OC(CO)[C@@H](O)C(O)C2O)C(O)C1O` (stereo partly shown) [O-XMA-C11], the “CMC (wt %)” value in data set [1] is on record as ~0.0019 wt %. In addition, in data set [3], the “Rh (nm), hydrodynamic radius of micelles” value worked out at 3.0 ± 0.02 nm.

Consider `CCCCCCCCCCCCCCCC[C@@](CO[C@@H]1OC(CO)[C@@H](O[C@H]2OC(CO)[C@@H](O)C(O)C2O)C(O)C1O)(CO[C@@H]1OC(CO)[C@@H](O[C@@H]2OC(CO)[C@@H](O)C(O)C2O)C(O)C1O)Cc1cccc(C[C@](CCCCCCCCCCCCCCCC)(CO[C@@H]2OC(CO)[C@@H](O[C@H]3OC(CO)[C@@H](O)C(O)C3O)C(O)C2O)CO[C@@H]2CC(CO)[C@@H](O[C@H]3OC(CO)[C@@H](O)C(O)C3O)C(O)C2O)c1` (stereo partly shown) [M-XMA-C16], for which, in data set [1], the “CMC” value is ~2.0 µM and the “CMC (wt %)” value was ~0.0004 wt %. Further, in data set [2] (setting [6]), the “MelB protein extraction efficiency” value is “protein extraction efficiency at almost the same level as DDM”. Besides, in data set [3], the “Rh (nm), hydrodynamic radius of micelles” value was 3.9 ± 0.04 nm.

For the molecule `CCCCCCCCCCCCCCC(CO[C@@H]1OC(CO)[C@@H](O[C@@H]2OC(CO)[C@@H](O)C(O)C2O)C(O)C1O)(CO[C@@H]1OC(CO)[C@@H](O[C@@H]2OC(CO)[C@@H](O)C(O)C2O)C(O)C1O)Cc1ccccc1CC(CCCCCCCCCCCCCC)(CO[C@@H]1OC(CO)[C@@H](O[C@@H]2OC(CO)[C@@H](O)C(O)C2O)C(O)C1O)CO[C@@H]1OC(CO)[C@@H](O[C@@H]2OC(CO)[C@@H](O)C(O)C2O)C(O)C1O` (stereo partly shown) [O-XMA-C14], in data set [1], the “CMC” value is ~3.0 µM and the “CMC (wt %)” value was ~0.0006 wt %. The “Rh (nm), hydrodynamic radius of micelles” value in data set [3] turned out to be 3.5 ± 0.04 nm.

For `CCCCCCCCCCCCCCC(CO[C@@H]1OC(CO)[C@@H](O[C@H]2OC(CO)[C@@H](O)C(O)C2O)C(O)C1O)(CO[C@@H]1OC(CO)[C@@H](O[C@H]2OC(CO)[C@@H](O)C(O)C2O)C(O)C1O)Cc1cccc(C[C@](CCCCCCCCCCCCCC)(CO[C@@H]2OC(CO)[C@@H](O[C@H]3OC(CO)[C@@H](O)C(O)C3O)C(O)C2O)CO[C@@H]2OC(CO)[C@@H](O[C@@H]3OC(CO)[C@@H](O)C(O)C3O)C(O)C2O)c1` (stereo partly shown) [M-XMA-C14], in data set [1], the “CMC” value was ~2.5 µM and the “CMC (wt %)” value is on record as ~0.0005 wt %. Besides, the “solubilized MelB retained, percentage of total protein in untreated membrane sample” value in data set [2] (1.5 wt % detergent, 55° C.) is given as “approximately 70%”. Besides, the “MelB protein extraction / maintained solubilization” value in data set [2] (setting [5]) was “most effective”. The “Rh (nm), hydrodynamic radius of micelles” value in data set [3] is given as 3.6 ± 0.07 nm.

In the case of `CCCCCCCCCCC(CO[C@@H]1OC(CO)[C@@H](O[C@H]2OC(CO)[C@@H](O)C(O)C2O)C(O)C1O)(CO[C@@H]1OC(CO)[C@@H](O[C@H]2OC(CO)[C@@H](O)C(O)C2O)C(O)C1O)Cc1ccc(CC(CCCCCCCCCC)(CO[C@@H]2OC(CO)[C@@H](O[C@H]3OC(CO)[C@@H](O)C(O)C3O)C(O)C2O)CO[C@@H]2OC(CO)[C@@H](O[C@H]3OC(CO)[C@@H](O)C(O)C3O)C(O)C2O)cc1` (stereo partly shown) [P-XMA-C10], in data set [1], the “CMC” value is ~7 µM and the “CMC (wt %)” value was ~0.001 wt %. Besides, the “MelBSt stabilization ability compared with DDM” value in data set [2] is listed as “higher MelBSt stabilization ability than DDM”. For the same molecule, the “MelB protein extraction efficiency” value in data set [2] (setting [4]) is on record as “extraction efficiency at the same level as DDM”. Also, in data set [2] (setting [5]), the “MelB protein extraction / maintained solubilization” value was “higher MelBSt extraction ability than DDM”. Also, in data set [2] (1.5 wt % detergent, 65° C., 90 minutes), the MelB protein extraction entry is on record as “extracted MelBSt”. In data set [3], the “Rh (nm), hydrodynamic radius of micelles” value turned out to be 3.5 ± 0.01 nm and the “size distribution of micelles” value was “two sets of micelles having different radii”.

Take `CCCCCCCCCCCCCCCCC(CO[C@@H]1OC(CO)[C@@H](O[C@@H]2OC(CO)[C@@H](O)C(O)C2O)C(O)C1O)(CO[C@@H]1OC(CO)[C@@H](O[C@@H]2OC(CO)[C@@H](O)C(O)C2O)C(O)C1O)Cc1ccccc1CC(CCCCCCCCCCCCCCCC)(CO[C@@H]1OC(CO)[C@@H](O[C@@H]2OC(CO)[C@@H](O)C(O)C2O)C(O)C1O)CO[C@@H]1OC(CO)[C@@H](O[C@@H]2OC(CO)[C@@H](O)C(O)C2O)C(O)C1O` (stereo partly shown) [O-XMA-C16]: in data set [1], the “CMC” value was ~2.0 µM and the “CMC (wt %)” value was ~0.0004 wt %. Moreover, in data set [3], the “Rh (nm), hydrodynamic radius of micelles” value was 3.9 ± 0.06 nm.

In the case of `CCCCCCCCC(CO[C@@H]1OC(CO)[C@@H](O[C@H]2OC(CO)[C@@H](O)C(O)C2O)C(O)C1O)(CO[C@@H]1OC(CO)[C@@H](O[C@H]2OC(CO)[C@@H](O)C(O)C2O)C(O)C1O)Cc1ccc(C[C@](CCCCCCCC)(CO[C@H]2CC(O)[C@H](O[C@H]3OC(CO)[C@@H](O)C(O)C3O)C(CO)O2)CO[C@@H]2OC(CO)[C@@H](O[C@H]3OC(CO)[C@@H](O)C(O)C3O)C(O)C2O)cc1` (stereo partly shown) [P-XMA-C8], in data set [1], the “CMC (wt %)” value is listed as ~0.004 wt %. In data set [3], the “micelle size compared with DDM” value is reported as “smaller than DDM”; the “Rh (nm), hydrodynamic radius of micelles” value is 2.7 nm and 2.7 ± 0.04 nm; the “size distribution of micelles” value was “one set of micelles”.

`CCCCCCCCCCCCCCCCCCC(CO[C@@H]1OC(CO)[C@@H](O[C@@H]2OC(CO)[C@@H](O)C(O)C2O)C(O)C1O)(CO[C@@H]1OC(CO)[C@@H](O[C@@H]2OC(CO)[C@@H](O)C(O)C2O)C(O)C1O)Cc1ccccc1CC(CCCCCCCCCCCCCCCCCC)(CO[C@@H]1OC(CO)[C@@H](O[C@@H]2OC(CO)[C@@H](O)C(O)C2O)C(O)C1O)CO[C@@H]1OC(CO)[C@@H](O[C@@H]2OC(CO)[C@@H](O)C(O)C2O)C(O)C1O` (stereo partly shown) [O-XMA-C18]: the “CMC (wt %)” value in data set [1] is ~0.0003 wt %. In addition, the “Rh (nm), hydrodynamic radius of micelles” value in data set [3] was found to be 3.9 ± 0.04 nm.

These data come from patent US10647738B2, “Xylene-based amphiphilic compound and use thereof” (Industry-University Cooperation Foundation Hanyang …, priority 2016, dated 2020).
